Values quoted from earlier work in patent US6900317B2, “Salts of the CGRP antagonist BIBN4096 and inhalable powdered medicaments containing them” (Boehringer Ingelheim Pharma GmbH & Co. KG, priority 2002, dated 2005).

Conditions: conventional preparations

NCCCC[C@H](NC(=O)[C@@H](Cc1cc(Br)c(O)c(Br)c1)NC(=O)N1CCC(N2Cc3ccccc3NC2=O)CC1)C(=O)N1CCN(c2ccncc2)CC1 [BIBN4096, 1-[N^2-[3,5-dibromo-N-[[4-(3,4-dihydro-2(1H)-oxoquinazolin-3-yl)-1-piperidinyl]carbonyl]-D-tyrosyl]-L-lysyl]-4-(4-pyridinyl)-piperazine]
bioavailability by oral route: only limited bioavailability
